# Laboratory results reported in ChEMBL document CHEMBL3603774, “Novel 5-functionalized-pyrazoles: Synthesis, characterization and pharmacological screening” (Bioorg Med Chem Lett, 2015).
# Assays:
# [1] = test system: Bacillus cereus; experiment: Antibacterial activity against Bacillus cereus MTCC 8372 at 50 ug/ml after 24 hrs by disc diffusion method; assay type: functional; settings: MTCC 8372, 24 h, read-out: IZ
# [2] = test system: Bacillus cereus; experiment: Antibacterial activity against Bacillus cereus MTCC 8372 at 100 ug/ml after 24 hrs by disc diffusion method; assay type: functional; settings: MTCC 8372, 24 h, read-out: IZ
# [3] = test system: Staphylococcus aureus; experiment: Antibacterial activity against Staphylococcus aureus MTCC 96 at 50 ug/ml after 24 hrs by disc diffusion method; assay type: functional; settings: MTCC 96, 24 h, read-out: IZ
# [4] = test system: Staphylococcus aureus; experiment: Antibacterial activity against Staphylococcus aureus MTCC 96 at 100 ug/ml after 24 hrs by disc diffusion method; assay type: functional; settings: MTCC 96, 24 h, read-out: IZ
# [5] = test system: Escherichia coli; experiment: Antibacterial activity against Escherichia coli MTCC 724 at 50 ug/ml after 24 hrs by disc diffusion method; assay type: functional; settings: MTCC 724, 24 h, read-out: IZ
# [6] = test system: Escherichia coli; experiment: Antibacterial activity against Escherichia coli MTCC 724 at 100 ug/ml after 24 hrs by disc diffusion method; assay type: functional; settings: MTCC 724, 24 h, read-out: IZ
# [7] = test system: Klebsiella pneumoniae; experiment: Antibacterial activity against Klebsiella pneumoniae MTCC 3384 at 50 ug/ml after 24 hrs by disc diffusion method; assay type: functional; settings: MTCC 3384, 24 h, read-out: IZ
# [8] = test system: Klebsiella pneumoniae; experiment: Antibacterial activity against Klebsiella pneumoniae MTCC 3384 at 100 ug/ml after 24 hrs by disc diffusion method; assay type: functional; settings: MTCC 3384, 24 h, read-out: IZ
# [9] = test system: Aspergillus flavus; experiment: Antifungal activity against Aspergillus flavus MTCC 873 at 50 ug/ml after 24 hrs by disc diffusion method; assay type: functional; settings: MTCC 873, 24 h, read-out: IZ
# [10] = test system: Aspergillus flavus; experiment: Antifungal activity against Aspergillus flavus MTCC 873 at 100 ug/ml after 24 hrs by disc diffusion method; assay type: functional; settings: MTCC 873, 24 h, read-out: IZ
# [11] = test system: Aspergillus niger; experiment: Antifungal activity against Aspergillus niger MTCC 281 at 50 ug/ml after 24 hrs by disc diffusion method; assay type: functional; settings: MTCC 281, 24 h, read-out: IZ
# [12] = test system: Bacillus cereus; experiment: Antibacterial activity against Bacillus cereus MTCC 8372 after 24 hrs by microdilution method; assay type: functional; settings: MTCC 8372, 24 h
# [13] = test system: Bacillus cereus; experiment: Antibacterial activity against Bacillus cereus MTCC 8372 assessed as concentration required to completely destroy test microorganisms after 24 hrs; assay type: functional; settings: MTCC 8372, 24 h
# [14] = test system: Staphylococcus aureus; experiment: Antibacterial activity against Staphylococcus aureus MTCC 96 after 24 hrs by microdilution method; assay type: functional; settings: MTCC 96, 24 h
# [15] = test system: Staphylococcus aureus; experiment: Antibacterial activity against Staphylococcus aureus MTCC 96 assessed as concentration required to completely destroy test microorganisms after 24 hrs; assay type: functional; settings: MTCC 96, 24 h
# [16] = test system: Escherichia coli; experiment: Antibacterial activity against Escherichia coli MTCC 724 after 24 hrs by microdilution method; assay type: functional; settings: MTCC 724, 24 h
# [17] = test system: Escherichia coli; experiment: Antibacterial activity against Escherichia coli MTCC 724 assessed as concentration required to completely destroy test microorganisms after 24 hrs; assay type: functional; settings: MTCC 724, 24 h
# [18] = test system: Klebsiella pneumoniae; experiment: Antibacterial activity against Klebsiella pneumoniae MTCC 3384 after 24 hrs by microdilution method; assay type: functional; settings: MTCC 3384, 24 h
# [19] = test system: Klebsiella pneumoniae; experiment: Antibacterial activity against Klebsiella pneumoniae MTCC 3384 assessed as concentration required to completely destroy test microorganisms after 24 hrs; assay type: functional; settings: MTCC 3384, 24 h
# [20] = test system: Aspergillus flavus; experiment: Antifungal activity against Aspergillus flavus MTCC 873 after 48 hrs by microdilution method; assay type: functional; settings: MTCC 873, 48 h
# [21] = test system: Aspergillus flavus; experiment: Antifungal activity against Aspergillus flavus MTCC 873 assessed as concentration required to completely destroy test microorganisms after 24 hrs; assay type: functional; settings: MTCC 873, 24 h
# [22] = test system: Aspergillus niger; experiment: Antifungal activity against Aspergillus niger MTCC 281 after 48 hrs by microdilution method; assay type: functional; settings: MTCC 281, 48 h
# [23] = test system: Aspergillus niger; experiment: Antifungal activity against Aspergillus niger MTCC 281 assessed as concentration required to completely destroy test microorganisms after 24 hrs; assay type: functional; settings: MTCC 281, 24 h
# [24] = test system: Aspergillus niger; experiment: Antifungal activity against Aspergillus niger MTCC 281 at 100 ug/ml after 24 hrs by disc diffusion method; assay type: functional; settings: MTCC 281, 24 h, read-out: IZ
# [25] = molecular target: T1, Alpha amylase (Homo sapiens, UniProt P0DUB6); experiment: Inhibition of alpha-amylase (unknown origin) using starch as substrate after 30 mins by spectrophotometer analysis
# T1 sequence (P0DUB6 whole entry): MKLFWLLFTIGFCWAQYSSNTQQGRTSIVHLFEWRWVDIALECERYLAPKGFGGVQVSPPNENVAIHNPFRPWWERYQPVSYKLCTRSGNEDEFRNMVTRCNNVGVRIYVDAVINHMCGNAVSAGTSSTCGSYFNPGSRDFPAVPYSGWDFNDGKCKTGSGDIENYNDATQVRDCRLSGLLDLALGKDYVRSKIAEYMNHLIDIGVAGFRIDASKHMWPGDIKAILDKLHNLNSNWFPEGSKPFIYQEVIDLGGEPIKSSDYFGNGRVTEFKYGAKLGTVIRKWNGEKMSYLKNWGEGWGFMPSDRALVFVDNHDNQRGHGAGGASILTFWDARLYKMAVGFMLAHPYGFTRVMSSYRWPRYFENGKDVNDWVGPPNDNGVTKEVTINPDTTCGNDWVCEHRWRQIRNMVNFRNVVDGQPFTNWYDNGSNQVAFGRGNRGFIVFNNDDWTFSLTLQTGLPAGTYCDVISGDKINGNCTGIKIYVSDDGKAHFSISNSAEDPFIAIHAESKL
# [26] = Inhibition of alpha-glucosidase (unknown origin) using p-nitrophenol glycoside as substrate after 30 mins by colorimetric analysis; parameters: species or system Homo sapiens
SMILES,zone of inhibition at 50 µg/mL [1] [mm],zone of inhibition at 100 µg/mL [2] [mm],zone of inhibition at 50 µg/mL [3] [mm],zone of inhibition at 100 µg/mL [4] [mm],zone of inhibition at 50 µg/mL [5] [mm],zone of inhibition at 100 µg/mL [6] [mm],zone of inhibition at 50 µg/mL [7] [mm],zone of inhibition at 100 µg/mL [8] [mm],zone of inhibition at 50 µg/mL [9] [mm],zone of inhibition at 100 µg/mL [10] [mm],zone of inhibition at 50 µg/mL [11] [mm],MIC [12] [µg/mL],MBC [13] [µg/mL],MIC [14] [µg/mL],MBC [15] [µg/mL],MIC [16] [µg/mL],MBC [17] [µg/mL],MIC [18] [µg/mL],MBC [19] [µg/mL],MIC [20] [µg/mL],other results
CCOC(=O)c1c(-c2ccccc2)nn(-c2ccccc2)c1COc1ccc(C=O)cc1,3,3,2,8,10,16,8,12,20,5,12,40,210,40,210,55,235,55,230,40,MFC [21]: 275 µg/mL; MIC [22]: 45 µg/mL; MFC [23]: 260 µg/mL; zone of inhibition at 100 µg/mL [24]: 10 mm; IC50 [25]: 60 µg/mL; IC50 [26]: 65 µg/mL
CCOC(=O)c1c(-c2ccccc2)nn(-c2ccccc2)c1COc1ccc(C=O)cc1OC,4,8,2,8,3,8,4,6,8,9,12,45,230,45,240,40,210,45,200,40,MFC [21]: 250 µg/mL; MIC [22]: 40 µg/mL; MFC [23]: 205 µg/mL; zone of inhibition at 100 µg/mL [24]: 10 mm; IC50 [25]: 60 µg/mL; IC50 [26]: 70 µg/mL
CCOC(=O)c1c(-c2ccccc2)nn(-c2ccccc2)c1COCc1ccccc1,2,8,2,6,4,6,3,6,8,10,12,50,255,40,210,45,210,45,230,55,MFC [21]: 270 µg/mL; MIC [22]: 45 µg/mL; MFC [23]: 265 µg/mL; zone of inhibition at 100 µg/mL [24]: 8 mm; IC50 [25]: 45 µg/mL; IC50 [26]: 45 µg/mL
CCOC(=O)c1c(-c2ccccc2)nn(-c2ccccc2)c1COc1cc(OC)c(C=O)c(OC)c1,6,10,8,10,15,30,10,19,10,12,14,40,200,40,200,25,160,20,150,50,MFC [21]: 215 µg/mL; MIC [22]: 45 µg/mL; MFC [23]: 190 µg/mL; zone of inhibition at 100 µg/mL [24]: 11 mm; IC50 [25]: 40 µg/mL; IC50 [26]: 35 µg/mL
CCOC(=O)c1c(-c2ccccc2)nn(-c2ccccc2)c1COCc1c(-c2ccc(F)cc2)nc(N(C)S(C)(=O)=O)nc1C(C)C,8,20,6,19,3,10,8,10,12,6,10,15,150,40,190,35,280,30,240,55,MFC [21]: 300 µg/mL; MIC [22]: 50 µg/mL; MFC [23]: 280 µg/mL; zone of inhibition at 100 µg/mL [24]: 8 mm; IC50 [25]: 15 µg/mL; IC50 [26]: 25 µg/mL
